Laboratory results taken from ChEMBL document CHEMBL3822432, “Antibacterial and anticancer activity of a series of novel peptides incorporating cyclic tetra-substituted C(α) amino acids” (Bioorg Med Chem, 2016).
Values after ≈ are worked out from the molar mass of the structure shown. Non-standard residues stand in square brackets, D forms with d. Residues, ends and D or L forms follow the SMILES beside them. ξ: configuration not given here. Ac6c = NC1(C(=O)O)CCCCC1; ξOrn = NCCCC(N)C(=O)O; ξDab = NCCC(N)C(=O)O

Assays:
[1] = test system: MCF7; test: Antiproliferative activity against human MCF7 cells after 72 hrs by Celltiter-Glo luminescent cell viability assay; assay type: functional, cell-based; details: MCF7, 72 h
[2] = Antiproliferative activity against human IGROV1 cells after 72 hrs by Celltiter-Glo luminescent cell viability assay; assay type: functional, cell-based; details: IGROV-1, 72 h
[3] = test system: Staphylococcus aureus; test: Antibacterial activity against Staphylococcus aureus Seattle 1945 ATCC 25923 by two fold serial dilution method; assay type: functional
[4] = test system: A549; test: Antiproliferative activity against human A549 cells after 72 hrs by Celltiter-Glo luminescent cell viability assay; assay type: functional, cell-based; details: A549, 72 h
[5] = test system: Staphylococcus aureus; test: Antibacterial activity against methicillin-resistant Staphylococcus aureus USA 300 NRS 384 by two fold serial dilution method; assay type: functional
[6] = Antibacterial activity against Clostridium difficile VIP 10463 ATCC 43255 by two fold serial dilution method; assay type: functional, Clostridium difficile ATCC 43255; details: Clostridioides difficile
[7] = test system: Enterococcus faecalis; test: Antibacterial activity against Enterococcus faecalis Portland ATCC 29212 by two fold serial dilution method; assay type: functional; details: ATCC 29212 Portland
[8] = Antibacterial activity against Yersinia pestis CO92 NR641 by two fold serial dilution method; assay type: functional
[9] = test system: Mycobacterium tuberculosis; test: Antibacterial activity against Mycobacterium tuberculosis H37Ra ATCC 2517 by two fold serial dilution method; assay type: functional
[10] = test system: Acinetobacter baumannii; test: Antibacterial activity against Acinetobacter baumannii B5W71 ATCC 15149 by two fold serial dilution method; assay type: functional
[11] = Antibacterial activity against Bacillus anthracis Ames NR-3838 by two fold serial dilution method; assay type: functional, Bacillus anthracis str. Ames
[12] = test system: Streptococcus pneumoniae; test: Antibacterial activity against Streptococcus pneumoniae 262 ATCC 49619 by two fold serial dilution method; assay type: functional
[13] = test system: Pseudomonas aeruginosa; test: Antibacterial activity against Pseudomonas aeruginosa Boston 41501 ATCC 27853 by two fold serial dilution method; assay type: functional
[14] = Antiproliferative activity against human PC3 cells after 72 hrs by Celltiter-Glo luminescent cell viability assay; assay type: functional, cell-based; details: PC-3, 72 h
[15] = Antiproliferative activity against human DLD1 cells after 72 hrs by Celltiter-Glo luminescent cell viability assay; assay type: functional, cell-based; details: DLD-1, 72 h
[16] = Antibacterial activity against carbapenem-resistant Klebsiella pneumoniae K6 ATCC 700603 by two fold serial dilution method; assay type: functional, Klebsiella pneumoniae 700603
[17] = test system: RL; test: Antiproliferative activity against human RL cells after 72 hrs by Celltiter-Glo luminescent cell viability assay; assay type: functional, cell-based
[18] = Antiproliferative activity against human UACC62 cells after 72 hrs by Celltiter-Glo luminescent cell viability assay; assay type: functional, cell-based; details: UACC-62, 72 h
[19] = Antibacterial activity against Francisella tularensis SCHU S4 NR-643 by two fold serial dilution method; assay type: functional
[20] = test system: A498; test: Antiproliferative activity against human A498 cells after 72 hrs by Celltiter-Glo luminescent cell viability assay; assay type: functional, cell-based; details: A498, 72 h
[21] = test system: Burkholderia pseudomallei; test: Antibacterial activity against Burkholderia pseudomallei AHS 1 NCTC 8016 by two fold serial dilution method; assay type: functional
[22] = Antiproliferative activity against human MIAPaCa2 cells after 72 hrs by Celltiter-Glo luminescent cell viability assay; assay type: functional, cell-based; details: MIA PaCa-2, 72 h
[23] = test system: Neisseria gonorrhoeae; test: Antibacterial activity against Neisseria gonorrhoeae F-18 ATCC 49226 by two fold serial dilution method; assay type: functional
[24] = Antiproliferative activity against human COLO205 cells after 72 hrs by Celltiter-Glo luminescent cell viability assay; assay type: functional, cell-based; details: COLO 205, 72 h
[25] = Antibacterial activity against Salmonella enterica LT2 Typhimurium ATCC 15277 by two fold serial dilution method; assay type: functional
[26] = test system: Klebsiella aerogenes; test: Antibacterial activity against carbapenem-resistant Enterobacter aerogenes NCDC819-56 ATCC 13048 by two fold serial dilution method; assay type: functional
[27] = test system: NCI-H69; test: Antiproliferative activity against human NCI-H69 cells after 72 hrs by Celltiter-Glo luminescent cell viability assay; assay type: functional, cell-based; details: NCI-H69, 72 h
[28] = test system: CFPAC-1; test: Antiproliferative activity against human CFPAC-1 cells after 72 hrs by Celltiter-Glo luminescent cell viability assay; assay type: functional, cell-based; details: CFPAC-1, 72 h

Row | SMILES | IC50 [1] [µM] | IC50 [2] [µM] | MIC [3] [µM] | IC50 [4] [µM] | MIC [5] [µM] | MIC [6] [µM] | MIC [7] [µM] | MIC [8] [µM] | MIC [9] [µM] | MIC [10] [µM] | MIC [11] [µM] | MIC [12] [µM] | MIC [13] [µM] | IC50 [14] [µM] | IC50 [15] [µM] | MIC [16] [µM] | IC50 [17] [µM] | IC50 [18] [µM] | MIC [19] [µM] | IC50 [20] [µM] | further results
1 | CC(=O)NCC(=O)N[C@@H](Cc1ccccc1)C(=O)NC1(C(=O)NCC(=O)NC2(C(=O)NC(CCN)C(=O)NC3(C(=O)NCC(=O)NC4(C(=O)N[C@@H](Cc5ccccc5)C(=O)NC5(C(=O)NCC(=O)NC6(C(=O)NCC(=O)NC(CCN)C(=O)NC7(C(=O)NC(CCN)C(=O)NC(CCN)C(=O)NC(CCN)C(=O)NC(CCN)C(N)=O)CCCCC7)CCCCC6)CCCCC5)CCCCC4)CCCCC3)CCCCC2)CCCCC1 (some centres undefined) (Ac-GF[Ac6c]G[Ac6c][ξDab][Ac6c]G[Ac6c]F[Ac6c]G[Ac6c]G[ξDab][Ac6c][ξDab][ξDab][ξDab][ξDab]-NH2) | 3 | 2.3 | 2.96 (≈ 6.26 µg/mL) | 2.4 | 5.91 (≈ 12.5 µg/mL) | 2.96 (≈ 6.26 µg/mL) | 2.96 (≈ 6.26 µg/mL) | > 47 | 11.8 (≈ 25 µg/mL) | 1.48 (≈ 3.13 µg/mL) | 2.96 (≈ 6.26 µg/mL) | 47.3 (≈ 100 µg/mL) | 1.48 (≈ 3.13 µg/mL) | 6.5 | 2.6 | 2.96 (≈ 6.26 µg/mL) | 1.7 | 1.9 | 23.6 (≈ 50 µg/mL) | 2.1 | MIC [21]: > 47 µM; IC50 [22]: 4.4 µM; MIC [23]: 1.48 µM (≈ 3.13 µg/mL); IC50 [24]: 6.4 µM; MIC [25]: 1.48 µM (≈ 3.13 µg/mL); MIC [26]: 2.97 µM (≈ 6.28 µg/mL); IC50 [27]: 1.5 µM; IC50 [28]: 2.7 µM
2 | CC(=O)NCC(=O)N[C@@H](Cc1ccccc1)C(=O)NC1(C(=O)NCC(=O)NC2(C(=O)NC(CCCN)C(=O)NC3(C(=O)NCC(=O)NC4(C(=O)N[C@@H](Cc5ccccc5)C(=O)NC5(C(=O)NCC(=O)NC6(C(=O)NCC(=O)NC(CCCN)C(=O)NC7(C(=O)NC(CCCN)C(=O)NC(CCCN)C(=O)NC(CCCN)C(=O)NC(CCCN)C(N)=O)CCCCC7)CCCCC6)CCCCC5)CCCCC4)CCCCC3)CCCCC2)CCCCC1 (some centres undefined) (Ac-GF[Ac6c]G[Ac6c][ξOrn][Ac6c]G[Ac6c]F[Ac6c]G[Ac6c]G[ξOrn][Ac6c][ξOrn][ξOrn][ξOrn][ξOrn]-NH2) | 4.6 | 5.4 | 5.67 (≈ 12.5 µg/mL) | 6.5 | 22.8 (≈ 50 µg/mL) | 5.67 (≈ 12.5 µg/mL) | 11.4 (≈ 25 µg/mL) | > 45 | 11.4 (≈ 25 µg/mL) | 2.84 (≈ 6.25 µg/mL) | 2.84 (≈ 6.25 µg/mL) | 45.5 (≈ 100 µg/mL) | 1.42 (≈ 3.12 µg/mL) | 7.5 | 6.2 | 22.8 (≈ 50 µg/mL) | 2.5 | 3.1 | 45.5 (≈ 100 µg/mL) | 4.7 | MIC [21]: > 45 µM; IC50 [22]: 3.6 µM; MIC [23]: 2.84 µM (≈ 6.25 µg/mL); IC50 [24]: 3.2 µM; MIC [25]: 2.84 µM (≈ 6.25 µg/mL); MIC [26]: 22.8 µM (≈ 50 µg/mL); IC50 [27]: 1.7 µM; IC50 [28]: 5.9 µM
3 | CC(=O)N[C@@H](CCCCN)C(=O)N[C@@H](CCCCN)C(=O)N[C@@H](CCCCN)C(=O)N[C@@H](CCCCN)C(=O)NCC(=O)N[C@@H](Cc1ccccc1)C(=O)NC1(C(=O)NCC(=O)NC2(C(=O)N[C@@H](CCCCN)C(=O)NC3(C(=O)NCC(=O)NC4(C(=O)N[C@@H](Cc5ccccc5)C(=O)NC5(C(=O)NCC(=O)NC6(C(=O)NCC(=O)N[C@@H](CCCCN)C(=O)NC7(C(N)=O)CCCCC7)CCCCC6)CCCCC5)CCCCC4)CCCCC3)CCCCC2)CCCCC1 (Ac-KKKKGF[Ac6c]G[Ac6c]K[Ac6c]G[Ac6c]F[Ac6c]G[Ac6c]GK[Ac6c]-NH2) | 7.3 | > 7.5 | 10.9 (≈ 25 µg/mL) | 7.2 | 43.8 (≈ 99.9 µg/mL) | 1.37 (≈ 3.13 µg/mL) | 21.9 (≈ 49.9 µg/mL) | > 44 | 21.9 (≈ 49.9 µg/mL) | 2.73 (≈ 6.24 µg/mL) | 1.37 (≈ 3.13 µg/mL) | 21.9 (≈ 49.9 µg/mL) | 1.37 (≈ 3.13 µg/mL) | > 7.5 | > 7.5 | 43.8 (≈ 99.9 µg/mL) | 3.7 | 6.4 | 21.9 (≈ 49.9 µg/mL) | 4.2 | MIC [21]: > 44 µM; IC50 [22]: > 7.5 µM; MIC [23]: 2.73 µM (≈ 6.24 µg/mL); IC50 [24]: 6.7 µM; MIC [25]: 5.47 µM (≈ 12.5 µg/mL); MIC [26]: 43.8 µM (≈ 99.9 µg/mL); IC50 [27]: 2.2 µM; IC50 [28]: > 7.5 µM
